From PubChem BioAssay (NCI)
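The concentration for 50% growth inhibition is given as GI50. TGI: concentration producing complete growth inhibition.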

How the values were obtained:
Test in all cases: inhibition of tumour cell growth, NCI panel, 384-well format
SNB-75 CNS = system: SNB-75 CNS
NCI-H522 lung = system: NCI-H522 lung
SK-MEL-5 melanoma = system: SK-MEL-5 melanoma
HCT-116 colon = system: HCT-116 colon
MDA-MB-435 melanoma = system: MDA-MB-435 melanoma
HCT-15 colon = system: HCT-15 colon
OVCAR-4 ovarian = system: OVCAR-4 ovarian
KM12 colon = system: KM12 colon
ACHN renal = system: ACHN renal
MOLT-4 leukemia = system: MOLT-4 leukemia
RPMI-8226 leukemia = system: RPMI-8226 leukemia
HS 578T breast = system: HS 578T breast
M14 melanoma = system: M14 melanoma
HCC-2998 colon = system: HCC-2998 colon
MCF7 breast = system: MCF7 breast
SW-620 colon = system: SW-620 colon
SNB-19 CNS = system: SNB-19 CNS
A549 NSCLC = system: A549 NSCLC
SF-268 CNS = system: SF-268 CNS
CAKI-1 renal = system: CAKI-1 renal
T-47D breast = system: T-47D breast
HL-60(TB) leukemia = system: HL-60(TB) leukemia
MDA-MB-468 breast = system: MDA-MB-468 breast
UO-31 renal = system: UO-31 renal
SF-295 CNS = system: SF-295 CNS
COLO 205 colon = system: COLO 205 colon
SK-MEL-28 melanoma = system: SK-MEL-28 melanoma
NCI-H460 NSCLC = system: NCI-H460 NSCLC
K-562 leukemia = system: K-562 leukemia
HOP-62 NSCLC = system: HOP-62 NSCLC
SR leukemia = system: SR leukemia
A498 renal = system: A498 renal
OVCAR-3 ovarian = system: OVCAR-3 ovarian
IGROV1 ovarian = system: IGROV1 ovarian
HT29 colon = system: HT29 colon
CCRF-CEM leukemia = system: CCRF-CEM leukemia
DU-145 prostate = system: DU-145 prostate
MDA-MB-231 breast = system: MDA-MB-231 breast
786-0 renal = system: 786-0 renal
RXF 393 renal = system: RXF 393 renal
OVCAR-8 ovarian = system: OVCAR-8 ovarian
SF-539 CNS = system: SF-539 CNS
PC-3 prostate = system: PC-3 prostate
NCI-H226 lung = system: NCI-H226 lung
MALME-3M melanoma = system: MALME-3M melanoma
LOX IMVI melanoma = system: LOX IMVI melanoma
OVCAR-5 ovarian = system: OVCAR-5 ovarian
BT-549 breast = system: BT-549 breast
NCI-H322M lung = system: NCI-H322M lung
EKVX NSCLC = system: EKVX NSCLC
TK-10 renal = system: TK-10 renal
NCI/ADR-RES ovarian = system: NCI/ADR-RES ovarian
NCI-H23 lung = system: NCI-H23 lung
U251 glioblastoma = system: U251 glioblastoma
HOP-92 NSCLC = system: HOP-92 NSCLC
UACC-257 melanoma = system: UACC-257 melanoma
SK-OV-3 ovarian = system: SK-OV-3 ovarian
SN12C renal = system: SN12C renal

Structure (SMILES): O=C(NC[C@H](O)CO)c1ccncc1Nc1ccc(I)cc1F
- GI50 (SNB-75 CNS): 8.92 µM
- TGI (SNB-75 CNS): 68 µM
- GI50 (NCI-H522 lung): 13.6 µM
- TGI (NCI-H522 lung): > 100 µM
- GI50 (SK-MEL-5 melanoma): 33.1 nM
- TGI (SK-MEL-5 melanoma): 13.9 µM
- GI50 (HCT-116 colon): 61.4 nM
- TGI (HCT-116 colon): 1450 nM
- GI50 (MDA-MB-435 melanoma): 13.4 nM
- TGI (MDA-MB-435 melanoma): > 100 µM
- GI50 (HCT-15 colon): 3.19 µM
- TGI (HCT-15 colon): > 100 µM
- GI50 (OVCAR-4 ovarian): 21.5 µM
- TGI (OVCAR-4 ovarian): > 100 µM
- GI50 (KM12 colon): 95.3 nM
- TGI (KM12 colon): > 100 µM
- GI50 (ACHN renal): 13.8 µM
- TGI (ACHN renal): > 100 µM
- GI50 (MOLT-4 leukemia): 12.3 µM
- TGI (MOLT-4 leukemia): 25.2 µM
- GI50 (RPMI-8226 leukemia): 7.66 µM
- TGI (RPMI-8226 leukemia): 47.3 µM
- GI50 (HS 578T breast): 16 µM
- TGI (HS 578T breast): > 100 µM
- GI50 (M14 melanoma): < 10 nM
- TGI (M14 melanoma): 23.5 nM
- GI50 (HCC-2998 colon): 27.8 nM
- TGI (HCC-2998 colon): 217 nM
- GI50 (MCF7 breast): 18.9 µM
- TGI (MCF7 breast): > 100 µM
- GI50 (SW-620 colon): < 10 nM
- TGI (SW-620 colon): > 100 µM
- GI50 (SNB-19 CNS): 13.2 µM
- TGI (SNB-19 CNS): > 100 µM
- GI50 (A549 NSCLC): 300 nM
- TGI (A549 NSCLC): 18.8 µM
- GI50 (SF-268 CNS): > 100 µM
- TGI (SF-268 CNS): > 100 µM
- GI50 (CAKI-1 renal): 433 nM
- TGI (CAKI-1 renal): > 100 µM
- GI50 (T-47D breast): 26.1 µM
- TGI (T-47D breast): > 100 µM
- GI50 (HL-60(TB) leukemia): < 10 nM
- TGI (HL-60(TB) leukemia): 11.4 nM
- GI50 (MDA-MB-468 breast): 14.8 µM
- TGI (MDA-MB-468 breast): 36.2 µM
- GI50 (UO-31 renal): 354 nM
- TGI (UO-31 renal): 11.5 µM
- GI50 (SF-295 CNS): 30.6 µM
- TGI (SF-295 CNS): > 100 µM
- GI50 (COLO 205 colon): < 10 nM
- TGI (COLO 205 colon): 171 nM
- GI50 (SK-MEL-28 melanoma): < 10 nM
- TGI (SK-MEL-28 melanoma): 13.6 nM
- GI50 (NCI-H460 NSCLC): 1550 nM
- TGI (NCI-H460 NSCLC): > 100 µM
- GI50 (K-562 leukemia): 423 nM
- TGI (K-562 leukemia): > 100 µM
- GI50 (HOP-62 NSCLC): 250 nM
- TGI (HOP-62 NSCLC): > 100 µM
- GI50 (SR leukemia): 1330 nM
- TGI (SR leukemia): 15.9 µM
- GI50 (A498 renal): 2630 nM
- TGI (A498 renal): 34.5 µM
- GI50 (OVCAR-3 ovarian): 14 µM
- TGI (OVCAR-3 ovarian): > 100 µM
- GI50 (IGROV1 ovarian): 84.9 nM
- TGI (IGROV1 ovarian): 10.9 µM
- GI50 (HT29 colon): 15.6 nM
- TGI (HT29 colon): > 100 µM
- GI50 (CCRF-CEM leukemia): 34.5 µM
- TGI (CCRF-CEM leukemia): > 100 µM
- GI50 (DU-145 prostate): 8.45 µM
- TGI (DU-145 prostate): > 100 µM
- GI50 (MDA-MB-231 breast): 449 nM
- TGI (MDA-MB-231 breast): 24.4 µM
- GI50 ([…]-0 renal): 19.6 µM
- TGI (786-0 renal): > 100 µM
- GI50 (RXF 393 renal): 2030 nM
- TGI (RXF 393 renal): 17.4 µM
- GI50 (OVCAR-8 ovarian): 27 µM
- TGI (OVCAR-8 ovarian): > 100 µM
- GI50 (SF-539 CNS): 2900 nM
- TGI (SF-539 CNS): 25 µM
- GI50 (PC-3 prostate): > 100 µM
- TGI (PC-3 prostate): > 100 µM
- GI50 (NCI-H226 lung): 614 nM
- TGI (NCI-H226 lung): 47.4 µM
- GI50 (MALME-3M melanoma): < 10 nM
- GI50 (LOX IMVI melanoma): 88.7 nM
- TGI (LOX IMVI melanoma): 1720 nM
- GI50 (OVCAR-5 ovarian): 47.6 nM
- TGI (OVCAR-5 ovarian): > 100 µM
- GI50 (BT-549 breast): 15 µM
- TGI (BT-549 breast): > 100 µM
- GI50 (NCI-H322M lung): 498 nM
- TGI (NCI-H322M lung): > 100 µM
- GI50 (EKVX NSCLC): 8.37 µM
- TGI (EKVX NSCLC): > 100 µM
- GI50 (TK-10 renal): 2240 nM
- TGI (TK-10 renal): 39 µM
- GI50 (NCI/ADR-RES ovarian): 22.3 µM
- TGI (NCI/ADR-RES ovarian): > 100 µM
- GI50 (NCI-H23 lung): 41.3 nM
- TGI (NCI-H23 lung): 1730 nM
- GI50 (U251 glioblastoma): 1670 nM
- TGI (U251 glioblastoma): > 100 µM
- GI50 (HOP-92 NSCLC): 484 nM
- TGI (HOP-92 NSCLC): 3.62 µM
- GI50 (UACC-257 melanoma): < 10 nM
- TGI (UACC-257 melanoma): 31.9 nM
- GI50 (SK-OV-3 ovarian): 23.1 µM
- TGI (SK-OV-3 ovarian): > 100 µM
- GI50 (SN12C renal): 4.09 µM
- TGI (SN12C renal): > 100 µM
